Test results as given in publication PMC12511262 (European Journal of Clinical Pharmacology, 2025).
Like-named read-outs stand apart in the source and are kept apart here.

Columns and labels:
[1] = single oral dose of 60 mg [14C]-quizartinib, six healthy men; cited from earlier work
[2] = Population pharmacokinetic model of quizartinib (NONMEM v7.5) applied to the external evaluation dataset; assay type: in vivo, human; conditions: popPK estimates
Description: Parameter values and covariate relationships were fixed according to those reported in the original publication, without any re-estimation or modification. Key model parameters were described at Table 2: Predictions were generated using recorded doses, sampling times, and covariate values from the evaluation dataset.

[3] = FLT3-ITD negative AML patients, steady state

Q: With `CC(C)(C)c1cc(NC(=O)Nc2ccc(-c3cn4c(n3)sc3cc(OCCN5CCOCC5)ccc34)cc2)no1` [quizartinib] as the compound, how does the “time of maximum blood concentration post-dosing” value [1] read?
A: four

Q: And the bioavailability ([2]; human, plasma, oral, FLT3-ITD negative AML patients, steady state, read-out: F1 Bioavailability, Mean)?
A: 77%

Q: And the bioavailability ([2]; human, plasma, oral, FLT3-ITD negative AML patients, steady state, read-out: F1 Bioavailability, Median)?
A: 75%

Q: What about the Vd ([2]; human, plasma, oral, FLT3-ITD negative AML patients, steady state, read-out: V2 Volume of distribution (central compartment), Mean) of the same compound?
A: 219 L

Q: What about the Vd ([2]; human, plasma, oral, FLT3-ITD negative AML patients, steady state, read-out: V2 Volume of distribution (central compartment), Median) of the same compound?
A: 227 L

Q: What about the half-life ([2]; human, plasma, oral, FLT3-ITD negative AML patients, steady state, read-out: t1/2 Half-life, Mean (converted)) of the same compound?
A: 82.4 h

Q: And the half-life ([2]; human, plasma, oral, FLT3-ITD negative AML patients, steady state, read-out: t1/2 Half-life, Median (converted))?
A: 82.5 h

Q: And the bioavailability ([2]; human, plasma, oral, median, read-out: bioavailability factor (F1), median)?
A: 75%

Q: And the clearance ([2]; human, plasma, oral, median, read-out: median clearance (CL) (converted))?
A: 29.3 mL/min

Q: And the “CL Clearance, Median” value [2, 3]?
A: 1.76

Q: What about the “KA Absorption rate constant, Mean” value [2, 3] of the same compound?
A: 1.68

Q: What about the “KA Absorption rate constant, Median” value [2, 3] of the same compound?
A: 1.68

Q: What about the “KE Elimination rate constant, Mean” value [2, 3] of the same compound?
A: 0.01

Q: What about the “KE Elimination rate constant, Median” value [2, 3] of the same compound?
A: 0.01

Q: What about the “CL Clearance, Mean” value ([2]; FLT3-ITD negative AML patients, steady state, oral quizartinib 30 mg daily with food (one patient 60 mg)) of the same compound?
A: 1.97

Q: What about the “V3 (peripheral compartment), median” value ([2]; median) of the same compound?
A: 176.03 L

Q: What about the “V4, median” value ([2]; median) of the same compound?
A: 39.30 L
